Values of other authors, collected in patent publication US20130079342A1, “HETEROCYCLIC COMPOUNDS AND THEIR USES” (priority 2011, published 2013).

How the values were obtained:
[1] = system: rheumatoid arthritis model; details: in vivo
[2] = system: systemic lupus erythematosis model; details: in vivo
p110δ = target: T1, p110δ (Homo sapiens, UniProt O00329)
T1 sequence (O00329 1-1044): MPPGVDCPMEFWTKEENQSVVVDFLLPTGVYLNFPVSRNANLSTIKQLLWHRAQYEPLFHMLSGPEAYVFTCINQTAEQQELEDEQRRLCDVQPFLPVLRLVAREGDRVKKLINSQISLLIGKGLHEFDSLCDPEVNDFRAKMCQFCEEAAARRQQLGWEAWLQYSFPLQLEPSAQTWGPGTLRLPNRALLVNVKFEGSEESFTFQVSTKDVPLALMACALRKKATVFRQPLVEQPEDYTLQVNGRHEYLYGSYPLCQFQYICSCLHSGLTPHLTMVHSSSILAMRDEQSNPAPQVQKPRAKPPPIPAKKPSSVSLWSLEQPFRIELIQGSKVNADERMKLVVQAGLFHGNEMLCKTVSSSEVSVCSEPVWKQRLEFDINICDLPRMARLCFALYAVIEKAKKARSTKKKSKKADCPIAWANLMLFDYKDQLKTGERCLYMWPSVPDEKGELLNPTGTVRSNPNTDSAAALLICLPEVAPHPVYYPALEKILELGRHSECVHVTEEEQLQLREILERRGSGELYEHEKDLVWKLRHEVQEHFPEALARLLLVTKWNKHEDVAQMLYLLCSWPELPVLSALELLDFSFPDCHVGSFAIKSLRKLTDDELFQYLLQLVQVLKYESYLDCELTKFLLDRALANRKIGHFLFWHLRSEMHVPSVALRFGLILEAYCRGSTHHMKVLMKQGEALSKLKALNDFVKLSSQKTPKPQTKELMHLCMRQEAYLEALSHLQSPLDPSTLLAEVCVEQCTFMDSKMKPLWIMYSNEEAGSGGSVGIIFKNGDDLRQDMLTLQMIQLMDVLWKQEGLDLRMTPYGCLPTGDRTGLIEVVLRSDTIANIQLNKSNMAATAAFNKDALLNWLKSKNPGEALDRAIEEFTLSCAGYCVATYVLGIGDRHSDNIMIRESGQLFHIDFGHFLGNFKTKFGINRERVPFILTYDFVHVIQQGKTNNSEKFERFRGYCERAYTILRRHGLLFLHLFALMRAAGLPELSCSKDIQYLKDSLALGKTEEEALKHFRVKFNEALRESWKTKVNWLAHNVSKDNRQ

[3] = system: ovalbumin-induced airway inflammation

O=C1NC(=O)/C(=C\c2ccc3nccnc3c2)S1 [AS 605240]
efficacy in a mouse model of rheumatoid arthritis [1]: efficacious | onset of disease in a model of systemic lupus erythematosis [2]: delay onset of disease

Cc1ccccc1-n1c(Cn2cnc3c(N)ncnc32)nc2cccc(C)c2c1=O [IC87114]
activity against any protein kinases tested (protein kinases): no activity | inhibition of p110δ (p110δ): high nanomolar range (triple digit) | inflammation and disease in a murine model of asthma [3]: significantly ameliorate inflammation and disease
